From patent EP3760291B1 (Stellenbosch University, priority 2019, dated 2021)

Legend:
[1] = assay type: physicochemical; conditions: pH 11.03
Method: Polymer-polymer aqueous two-phase systems were prepared using maltodextrin (mdx) in combination with PEG 4000 and PEG 8000. […] Demineralised water was added to yield a net weight of 200 g of solution.
Control/base solutions were prepared to be used as a baseline in the spectrophotometer by preparing the same solutions described above, but without resveratrol.
The aqueous two-phase systems were formed by continuously stirring the solutions using a magnetic stirrer for 30 minutes. […] In both the extraction solution and in the base solution two distinct phases were formed. 1 ml of the bottom phase of the extraction solution was separated from the system using a pipette tapped into an Erlenmeyer flask and 1 ml of the bottom phase of the blank solution was poured into a separate Erlenmeyer flask. The solutions were diluted by adding 50 ml of demineralised water to each.
Cuvettes containing the base solution were placed in the spectrophotometer and the system baselined. One of the cuvettes was then removed, rinsed with the diluted top phase of the extraction solution, and filled with the solution. […] The absorbance at the peak was then used to quantify the resveratrol content.
The resveratrol content of the top phase was quantified using the same methodology as for the bottom phase, using the top phase of the base solution to baseline the spectrophotometer. […]

[2] = water; cited from earlier work
[3] = Partitioning of resveratrol from biomass (grape pomace) in polymer-salt (PEG-salt) aqueous two-phase system; assay type: physicochemical; conditions: about 10% (w/w) PEG 8000 and about 15% (w/w) tartrate salt; raw biomass
[4] = as above; assay type: physicochemical
From the text: The partitioning of the polyphenolic biomolecule can be quantified using parameters such as the partition coefficient (K) and the yield (Y). The partition coefficient reflects the extent of separation of the polyphenolic compound into the polymer phase. It is defined as the ratio of […]. Partition coefficients of more than 1 indicate a higher concentration of the specific molecule in the top phase. The partition coefficient (K) is calculated with equation 5 in which cT is the concentration of the molecule in the top phase and CB is the concentration of the molecule in the bottom phase. K = (CT)/(CB) [formula]
Polymer-salt aqueous two-phase systems with PEG of different molecular weights were prepared using PEG 400 (Mw =400 g/mol), PEG 1000 (Mw =1000 g/mol), PEG 4000 (Mw =4000 g/mol), PEG 8000 (Mw =8000 g/mol), and PEG 10000 (Mw =10 000 g/mol).
Two different ATP systems with different polymer and salt concentrations were investigated. System A contains 11 wt% PEG and 26 wt% ammonium sulphate and system B contains 13 wt% PEG and 13 wt% ammonium sulphate. Table 2. Quantities of materials used to extract resveratrol in systems A and B
20 ml pomace was added to a polymer-salt ATP systems comprising 20 ml water, 5 g PEG 8000 (11 wt%) and 2.5 g (7 wt%), 5 g (13 wt%), 8 g (19 wt%) and 12 g (26 wt%) ammonium salt, respectively.
20 ml pomace was added to a polymer-salt ATP systems comprising 11 wt% PEG 8000 and 26 wt% tartrate, citrate, sulphate and phosphate salt solutions (20 ml water), respectively. The partition coefficient and percentage extraction of resveratrol to the PEG top phase was determined for each of the different types of salts.
The bottom phase of the ATPS (consisting of the salt solution) therefore only contained trace amounts of resveratrol, with the remaining resveratrol still contained in the biomass. It was therefore assumed that within the bottom phases exiting the polymer-salt ATPS reactor, that the remaining resveratrol that was not extracted would be contained within the raw biomass of grape pomace and canes, and not in the salt solution.

Oc1ccc(C=Cc2cc(O)cc(O)c2)cc1 [resveratrol]
partition coefficient of the system [1]: 1.36 | aqueous solubility [2]: 3 mg/100 ml | resveratrol partitioning to the top phase [3]: 99.6% | Partition Coefficient ([4]; 11 wt% PEG 8000, Ammonium sulphate, 25,5 wt% salt, to PEG top phase): 351 | Partition Coefficient ([4]; 11 wt% PEG 8000, Potassium hydrogen phosphate trihydrate, 25,5 wt% salt, to PEG top phase): 218 | Partition Coefficient ([4]; 11 wt% PEG 8000, Potassium sodium tartrate tetrahydrate, 25,5 wt% salt, to PEG top phase): 177 | Partition Coefficient ([4]; 11 wt% PEG 8000, Tri-sodium citrate dihydrate, 25,5 wt% salt, to PEG top phase): 79 | Partition Coefficient ([4]; PEG 8000 (11 wt%), 7 wt% ammonium sulphate, to PEG top phase): 78 | Partition Coefficient ([4]; PEG 8000 (11 wt%), 13 wt% ammonium sulphate, to PEG top phase): 242 | Partition Coefficient ([4]; PEG 8000 (11 wt%), 19 wt% ammonium sulphate, to PEG top phase): 334 | Partition Coefficient ([4]; PEG 8000 (11 wt%), 26 wt% ammonium sulphate, to PEG top phase): 351 | Partition Coefficient ([4]; System A: 11 wt% PEG, 26 wt% ammonium sulphate, PEG 400, to PEG top phase): 164 | Partition Coefficient ([4]; System A: 11 wt% PEG, 26 wt% ammonium sulphate, PEG 1000, to PEG top phase): 177 | Partition Coefficient ([4]; System A: 11 wt% PEG, 26 wt% ammonium sulphate, PEG 4000, to PEG top phase): 341 | Partition Coefficient ([4]; System A: 11 wt% PEG, 26 wt% ammonium sulphate, PEG 8000, to PEG top phase): 351 | Partition Coefficient ([4]; System A: 11 wt% PEG, 26 wt% ammonium sulphate, PEG 10000, to PEG top phase): 174 | Partition Coefficient ([4]; System B: 13 wt% PEG, 13 wt% ammonium sulphate, PEG 4000, to PEG top phase): 33 | Partition Coefficient ([4]; System B: 13 wt% PEG, 13 wt% ammonium sulphate, PEG 8000, to PEG top phase): 242 | Partition Coefficient ([4]; System B: 13 wt% PEG, 13 wt% ammonium sulphate, PEG 10000, to PEG top phase): 200
